Paper PMC10976477 (RSC Advances, 2024)

Tests used:
[1] = ABTS radical cation scavenging assay; conditions: read-out: IC50 (μM) ± SEM ABTS
[2] = Ferric ion reducing antioxidant power; conditions: μM equivalent to the standard antioxidant ascorbic acid
[3] = DPPH radical scavenging assay; conditions: read-out: IC50 (μM) ± SEM DPPH
eeAChE = eeAChE (Electrophorus electricus, UniProt O42275); assay: Cholinesterase inhibition, Ellman's assay; type: biochemical, electric eel; conditions: for SI = IC50 of BChE/IC50 of AChE: selectivity index
human MAO-B = target: T1, human MAO-B (Homo sapiens, UniProt P27338); assay: MAO-B inhibition assay; type: biochemical; conditions: for SI = IC50 of MAO-A/IC50 of MAO-B: selectivity index
T1 sequence (P27338 1-520): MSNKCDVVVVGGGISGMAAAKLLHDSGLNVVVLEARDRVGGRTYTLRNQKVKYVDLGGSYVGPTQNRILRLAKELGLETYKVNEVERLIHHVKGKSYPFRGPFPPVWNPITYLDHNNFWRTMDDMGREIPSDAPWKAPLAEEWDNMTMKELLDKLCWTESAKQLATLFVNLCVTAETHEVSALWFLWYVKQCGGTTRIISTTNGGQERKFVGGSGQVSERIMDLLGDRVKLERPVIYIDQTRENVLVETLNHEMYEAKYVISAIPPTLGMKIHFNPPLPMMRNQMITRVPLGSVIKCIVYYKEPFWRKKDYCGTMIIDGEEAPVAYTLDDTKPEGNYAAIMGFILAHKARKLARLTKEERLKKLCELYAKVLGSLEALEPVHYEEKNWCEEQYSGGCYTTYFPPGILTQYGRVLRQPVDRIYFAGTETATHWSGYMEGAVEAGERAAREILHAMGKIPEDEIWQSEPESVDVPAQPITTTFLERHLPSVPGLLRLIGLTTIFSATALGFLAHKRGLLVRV

eqBChE = eqBChE (Equus caballus, UniProt P81908); assay: biochemical
human MAO-A = target: T2, human MAO-A (Homo sapiens, UniProt P21397); assay: MAO-A inhibition assay; type: biochemical
T2 sequence (P21397 1-527): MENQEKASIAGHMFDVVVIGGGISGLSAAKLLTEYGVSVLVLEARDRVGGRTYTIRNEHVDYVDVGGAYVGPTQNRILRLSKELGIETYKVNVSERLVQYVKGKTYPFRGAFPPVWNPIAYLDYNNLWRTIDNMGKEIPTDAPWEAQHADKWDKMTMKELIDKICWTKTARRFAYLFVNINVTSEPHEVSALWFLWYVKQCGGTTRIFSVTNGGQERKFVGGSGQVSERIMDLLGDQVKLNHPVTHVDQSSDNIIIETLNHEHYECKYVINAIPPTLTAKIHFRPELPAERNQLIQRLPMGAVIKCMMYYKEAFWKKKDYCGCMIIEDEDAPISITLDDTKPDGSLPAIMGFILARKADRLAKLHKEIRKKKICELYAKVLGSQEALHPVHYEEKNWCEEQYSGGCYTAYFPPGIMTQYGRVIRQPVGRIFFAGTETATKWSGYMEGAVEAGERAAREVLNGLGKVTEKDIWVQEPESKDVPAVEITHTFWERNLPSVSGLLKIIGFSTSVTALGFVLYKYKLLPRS

SH-SY5Y cells = assay: SH-SY5Y neuroblastoma cell toxicity; type: cell-based, human; conditions: for neurotoxicity / cytotoxicity on SH-SY5Y cells: 10–100 μM, 48 h incubation, MTT
[4] = In vivo antioxidant potential in mice; conditions: 5 mg kg^−1, SOD, CAT, GSH
Aβ1–42 peptide = Aβ1–42 peptide (Homo sapiens, UniProt P05067); assay: ThT fluorescence assay for self-mediated Aβ1–42 aggregation; type: biochemical; conditions: after a 24-hour equimolar administration, ThT fluorescence (Fig. 4)
Sequence of Aβ1–42 peptide (P05067 672-713): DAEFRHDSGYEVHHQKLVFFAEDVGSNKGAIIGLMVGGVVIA

Sequence of eqBChE (P81908 whole entry): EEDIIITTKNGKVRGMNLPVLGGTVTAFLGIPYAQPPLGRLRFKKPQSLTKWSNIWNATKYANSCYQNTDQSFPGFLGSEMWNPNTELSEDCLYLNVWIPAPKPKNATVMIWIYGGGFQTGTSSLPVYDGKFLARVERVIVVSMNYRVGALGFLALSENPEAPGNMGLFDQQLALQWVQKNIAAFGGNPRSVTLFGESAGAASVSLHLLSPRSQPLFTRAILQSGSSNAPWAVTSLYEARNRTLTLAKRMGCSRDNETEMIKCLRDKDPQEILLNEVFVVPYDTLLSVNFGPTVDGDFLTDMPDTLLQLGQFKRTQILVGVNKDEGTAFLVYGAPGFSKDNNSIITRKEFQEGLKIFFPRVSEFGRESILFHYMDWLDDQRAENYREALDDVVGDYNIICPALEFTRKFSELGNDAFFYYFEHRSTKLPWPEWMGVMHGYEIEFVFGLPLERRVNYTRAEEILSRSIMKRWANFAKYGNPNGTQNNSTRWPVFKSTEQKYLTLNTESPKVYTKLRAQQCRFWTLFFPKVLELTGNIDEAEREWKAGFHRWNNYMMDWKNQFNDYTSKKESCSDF
Sequence of eeAChE (O42275 24-633): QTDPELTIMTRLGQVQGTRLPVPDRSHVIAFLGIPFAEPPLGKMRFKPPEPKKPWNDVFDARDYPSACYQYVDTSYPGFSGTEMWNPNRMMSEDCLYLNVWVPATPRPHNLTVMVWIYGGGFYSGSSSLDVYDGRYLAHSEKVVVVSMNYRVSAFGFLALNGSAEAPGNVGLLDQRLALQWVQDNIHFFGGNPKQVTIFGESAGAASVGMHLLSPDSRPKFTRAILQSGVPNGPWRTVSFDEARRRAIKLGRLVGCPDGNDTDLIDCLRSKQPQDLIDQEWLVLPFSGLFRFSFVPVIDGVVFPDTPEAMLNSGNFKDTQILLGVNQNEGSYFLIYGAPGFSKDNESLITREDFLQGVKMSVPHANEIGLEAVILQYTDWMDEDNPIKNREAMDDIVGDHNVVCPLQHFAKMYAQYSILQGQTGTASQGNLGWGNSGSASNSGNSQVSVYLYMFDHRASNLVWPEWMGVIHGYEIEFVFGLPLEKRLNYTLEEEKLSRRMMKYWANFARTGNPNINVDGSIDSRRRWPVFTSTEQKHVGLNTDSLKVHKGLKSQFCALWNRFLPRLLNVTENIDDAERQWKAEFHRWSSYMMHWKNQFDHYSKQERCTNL

| inhibition of amyloid beta fibrils (Aβ1–42 peptide) | Compound | IC50 [1] [µM] | FRAP value [2] [µM] | IC50 [3] [µM] | IC50 (eeAChE) [µM] | IC50 (human MAO-B) [µM] | SI = IC50 of BChE/IC50 of AChE (eeAChE) | IC50 (eqBChE) [µM] | SI = IC50 of MAO-A/IC50 of MAO-B (human MAO-B) | IC50 (human MAO-A) [µM] | protective ability on SH-SY5Y (SH-SY5Y cells; at all concentrations (10–100 μM)) | neurotoxicity / cytotoxicity on SH-SY5Y cells (SH-SY5Y cells) | in vivo antioxidant activity [4] |
| --- | --- | --- | --- | --- | --- | --- | --- | --- | --- | --- | --- | --- | --- |
| – | O=C1O[C@H]([C@@H](O)CO)C(O)=C1O [Ascorbic acid, reference compound] | 6.08 ± 0.21 | 90.89 | 4.89 ± 0.09 | – | – | – | – | – | – | – | – | – |
| – | COc1cc(/C=C/C(=O)NC(C)C(N)=O)ccc1O (centres unmarked) [Compound 18, (E)-N-(1-Amino-1-oxopropan-2-yl)-3-(4-hydroxy-3-methoxyphenyl)acrylamide] | 45.1 ± 1.77 | 29.84 | 58.3 ± 1.21 | 58.4 ± 0.09 | 10 ± 1.03 | – | – | – | – | – | – | – |
| – | CC(NC(=O)/C=C/c1ccc(-c2ccccc2)cc1)C(N)=O (centres unmarked) [Compound 20, (E)-3-([1,1′-Biphenyl]-4-yl)-N-(1-amino-1-oxopropan-2-yl)acryl-amide] | 77.1 ± 1.37 | 44.81 | – | 13.51 ± 0.1 | 0.513 ± 0.07 | 6 | 84.1 ± 1.32 | 19 | 10 ± 0.925 | – | – | – |
| – | COc1cc(/C=C/C(=O)Nc2nc3ccc(O)cc3s2)ccc1O [Compound 21, (E)-3-(4-Hydroxy-3-methoxyphenyl)-N-(6-hydroxybenzo[d]thiazol-2-yl)acrylamide] | 6.29 ± 0.09 | 36.01 | 14.44 ± 0.13 | 29.84 ± 0.1 | 0.491 ± 0.024 | 1 | 43.1 ± 1.09 | 75 | 37.1 ± 1.03 | – | – | – |
| – | COc1cc(/C=C/C(=O)Nc2ccc(S(N)(=O)=O)cc2)ccc1O [Compound 24, (E)-3-(4-Hydroxy-3-methoxyphenyl)-N-(4-sulfamoylphenyl)acryl-amide] | 48.8 ± 1.2 | 14.75 | 21.21 ± 0.15 | 10.74 ± 0.1 | 0.142 ± 0.011 | 5 | 58.2 ± 1.41 | 539 | 76.6 ± 1.22 | – | – | – |
| – | CC(NC(=O)c1cc(O)c(O)c(O)c1)C(N)=O (centres unmarked) [Compound 27, N-(1-Amino-1-oxopropan-2-yl)-3,4,5-trihydroxybenzamide] | 20.4 ± 0.3 | – | 14.6 ± 0.52 | 49.03 ± 0.1 | 30.2 ± 1.18 | – | – | – | – | 40–50% | – | – |
| – | NS(=O)(=O)c1ccc(NC(=O)c2cc(O)c(O)c(O)c2)cc1 [Compound 29, 3,4,5-Trihydroxy-N-(4-sulfamoylphenyl)benzamide] | 23.5 ± 1.04 | – | 10.8 ± 0.63 | 3.64 ± 0.1 | 0.395 ± 0.34 | 9 | 34 ± 1.18 | 54 | 21.4 ± 0.316 | – | did not show any apparent neurotoxicity | not determined to be active |
| around 60% | COc1cc(/C=C/C(=O)CC(=O)/C=C/c2ccc(O)c(OC)c2)ccc1O [Curcumin, reference compound] | – | – | – | – | – | – | – | – | – | – | – | – |
| – | COc1cc(/C=C/C(=O)O)ccc1O [Ferulic acid, trans-4-hydroxy-3-methoxycinnamic acid, reference compound] | – | – | 69.8 ± 1.48 | – | – | – | – | – | – | – | – | – |
| – | O=C(O)c1cc(O)c(O)c(O)c1 [Gallic acid, reference compound] | 35.2 ± 1.19 | – | 35.2 ± 1.04 | – | – | – | – | – | – | – | – | – |
| – | C#CCN[C@@H]1CCc2ccccc21 [rasigiline, rasagiline, reference compound] | – | – | – | – | – | – | – | – | – | – | no cytotoxicity | – |
| – | Cc1c(C)c2c(c(C)c1O)CCC(C)(C(=O)O)O2 (centres unmarked) [trolox, reference compound] | – | – | – | – | – | – | – | – | – | – | no cytotoxicity | significant antioxidant potential |
